We go through one molecule from patent US20020068749A1, “AIDS REMEDY” (priority 1996, published 2002).

The AUC is concentration integrated over time.

A short description of the series: Change of concentration in plasma over time after oral administration to rats (KNI-272 with Indinavir or Nelfinavir). The settings on record: for AUC: rat, plasma, po. The protocol:
In this example, the change in concentration in blood of KNI-272 over time when the KNI-272 was orally administered in combination with Indinavir, i.e. the change in the concentration of a non-binding type of drug in plasma over time, was measured to evaluate the effect of drug interactions on fluctuations of dynamics in vivo. A commercially available Indinavir for oral administration, CRIXIVAN™ (manufactured by Merck), was used after dissolving Indinavir sulfate in a prescribed concentration. As KNI-272, a suspension prepared from a fine powder of KNI-272 was used. Rats were used as test animals. […] In addition, each compound was individually administered to control groups to evaluate the dynamics in vivo. The animals were fasted for 16 hours before administration. The measurement of the change in the non-binding drug concentration in plasma over time was carried out according to a conventional method using blood samples collected from the test animals.
The method of evaluation was applied to the above-mentioned system of Indinavir and KNI-272 was followed. […] In this example, a dosage of 50 mg/kg was selected for both Nelfinavir and KNI-272.

Setting [1] is: Indinavir 40 mg/kg + KNI-272 40 mg/kg p.o. at the same time.

For `CSC[C@H](NC(=O)COc1cccc2cnccc12)C(=O)N[C@@H](Cc1ccccc1)[C@H](O)C(=O)N1CSC[C@H]1C(=O)NC(C)(C)C` [KNI-272, (R)-N-1,1-dimethylethyl-3-[(2S,3S)-2-hydroxy-3-[(R)-2-(5-isoquinolyloxyacetyl)amino-3-methylthiopropanoyl]amino-4-phenylbutanoyl]-1,3-thiazolidine-4-carboxyamide], the “increase in maximum concentration value in blood (Cmax) of KNI-272” value under setting [1] is reported as “about twice”. The “increase in the value of AUC of KNI-272” value under setting [1] is recorded as “about a six-times increase”. For the same molecule, the “increase in AUC value of KNI-272” value (KNI-272 10 mg/kg one hour after Indinavir 90 mg/kg) is on record as “about 10 times”. Also, the “decrease in the maximum concentration value in blood Cmax of KNI-272 (to fraction)” value (KNI-272 50 mg/kg with Nelfinavir 50 mg/kg vs alone) is reported as “about ¼”. The “increase in the maximum concentration value in blood (Cmax) of KNI-272” value (KNI-272 administered one hour after Indinavir) worked out at 3 times. Also, the AUC by setting is: (10 mg/kg, AUC value of KNI-272, KNI-272 10 mg/kg p.o., no Indinavir) 660 ng·h/mL; (40 mg/kg, AUC value of KNI-272, KNI-272 40 mg/kg p.o. individually) 4900 ng·h/mL; (40 mg/kg, AUC value of KNI-272, KNI-272 40 mg/kg p.o. together with Indinavir 40 mg/kg) 29200 ng·h/mL; (50 mg/kg, AUC value for KNI-272, KNI-272 50 mg/kg p.o. only) 9170 ng·h/mL; (50 mg/kg, AUC value for KNI-272, KNI-272 50 mg/kg p.o. simultaneously with Nelfinavir 50 mg/kg) 10300 ng·h/mL; (AUC value of KNI-272, KNI-272 10 mg/kg p.o. one hour after Indinavir 90 mg/kg) 6900 ng·h/mL.
